Values after ≈ are worked out from the molar mass of the structure shown. Each block holds one compound with its values, some of them ahead of it.
Tests used:
KB = assay: Cytotoxicity in human KB cells assessed as reduction in cell viability; type: functional, cell-based
PC-3 [1] = assay: Antiproliferative activity against human PC3 cells incubated for 48 hrs by MTT assay; type: functional; details: PC-3, 48 h
A549 [2] = assay: Antiproliferative activity against human A549 cells incubated for 48 hrs by MTT assay; type: functional, cell-based; details: A549, 48 h
HeLa [3] = assay: Antiproliferative activity against human HeLa cells incubated for 48 hrs by MTT assay; type: functional, cell-based
K562 [4] = assay: Antiproliferative activity against human K562 cells incubated for 48 hrs by MTT assay; type: functional; details: K562, 48 h
Bel-7402 = assay: Antiproliferative activity against human Bel7402 cells incubated for 48 hrs by MTT assay; type: functional; details: Bel-7402, 48 h
MCF7 [5] = assay: Antiproliferative activity against human MCF7 cells incubated for 24 hrs by MTT assay; type: functional, cell-based; details: MCF7, 24 h
A549 [6] = assay: Antiproliferative activity against human A549 cells incubated for 24 hrs by MTT assay; type: functional, cell-based; details: A549, 24 h
HeLa [7] = assay: Antiproliferative activity against human HeLa cells incubated for 24 hrs by MTT assay; type: functional, cell-based
MCF7 [8] = assay: Antiproliferative activity against human MCF7 cells incubated for 48 hrs by MTT assay; type: functional, cell-based; details: MCF7, 48 h
HCT-116 = assay: Antiproliferative activity against human HCT116 cells incubated for 48 hrs by MTT assay; type: functional, cell-based; details: HCT-116, 48 h
A549 [9] = assay: Cytotoxicity in human A549 cells assessed a reduction in cell viability incubated for 48 hrs by MTT assay; type: functional, cell-based; details: A549, 48 h
U-87 MG = assay: Cytotoxicity in human U87MG cells assessed as reduction in cell viability incubated for 48 hrs by MTT assay; type: functional, cell-based, U-87MG ATCC
A549 [10] = assay: Cytotoxicity in human A549 cells assessed as reduction in cell viability incubated for 48 hrs by MTT assay; type: functional, cell-based; details: A549, 48 h
PC-3 [11] = assay: Cytotoxicity in human PC3 cells assessed as reduction in cell viability incubated for 48 hrs by MTT assay; type: functional, cell-based; details: PC-3, 48 h
HT-29 [12] = assay: Cytotoxicity in human HT-29 cells assessed as reduction in cell viability incubated for 48 hrs by MTT assay; type: functional, cell-based; details: HT-29, 48 h
MDA-MB-231 [13] = assay: Growth inhibition of human MDA-MB-231 cells at 10 uM; type: functional; details: read-out: GI
A498 = assay: Growth inhibition of human A498 cells at 10 uM; type: functional; details: read-out: GI
HEK293 [14] = assay: Cytotoxicity in HEK293 cells at 100 uM by MTT assay; type: cell-based; details: human, hek293, 100 µM
MDA-MB-231 [15] = assay: Antiproliferative activity against human MDA-MB-231 cells incubated for 48 hrs by MTT assay; type: functional, cell-based; details: MDA-MB-231, 48 h
HUVEC = assay: Antiproliferative activity against human HUVEC cells incubated for 48 hrs by MTT assay; type: functional, cell-based
SK-OV-3 = assay: Antiproliferative activity against human SKOV3 cells incubated for 48 hrs by MTT assay; type: functional, cell-based; details: SK-OV-3, 48 h
DU-145 = assay: Antiproliferative activity against human DU145 cells incubated for 48 hrs by MTT assay; type: functional, cell-based; details: DU-145, 48 h
HT-29 [16] = assay: Antiproliferative activity against human HT-29 cells incubated for 48 hrs by MTT assay; type: functional, cell-based; details: HT-29, 48 h
HEK293 [17] = assay: Antiproliferative activity against HEK293 cells incubated for 48 hrs by MTT assay; type: cell-based; details: Homo sapiens, HEK293, 48 h
REH = assay: Cytotoxicity in human REH cells assessed as reduction in cell viability incubated for 48 to 72 hrs by trypan blue dye exclusion assay; type: functional, cell-based
K562 [18] = assay: Cytotoxicity in human K562 cells assessed as reduction in cell viability incubated for 48 to 72 hrs by trypan blue dye exclusion assay; type: functional, cell-based
[19] = molecular target: Epidermal growth factor receptor (Homo sapiens, UniProt P00533); assay: Inhibition of 6x-His-tagged human EGFR cytoplasmic domain (645 to 1186 amino acids) assessed as reduction in autophosphorylation pre-incubated for 10 mins and measured after 1 hr by DELFIA/time-resolved fluorometry
Sequence of Epidermal growth factor receptor (P00533 whole entry, the tested form may be a part): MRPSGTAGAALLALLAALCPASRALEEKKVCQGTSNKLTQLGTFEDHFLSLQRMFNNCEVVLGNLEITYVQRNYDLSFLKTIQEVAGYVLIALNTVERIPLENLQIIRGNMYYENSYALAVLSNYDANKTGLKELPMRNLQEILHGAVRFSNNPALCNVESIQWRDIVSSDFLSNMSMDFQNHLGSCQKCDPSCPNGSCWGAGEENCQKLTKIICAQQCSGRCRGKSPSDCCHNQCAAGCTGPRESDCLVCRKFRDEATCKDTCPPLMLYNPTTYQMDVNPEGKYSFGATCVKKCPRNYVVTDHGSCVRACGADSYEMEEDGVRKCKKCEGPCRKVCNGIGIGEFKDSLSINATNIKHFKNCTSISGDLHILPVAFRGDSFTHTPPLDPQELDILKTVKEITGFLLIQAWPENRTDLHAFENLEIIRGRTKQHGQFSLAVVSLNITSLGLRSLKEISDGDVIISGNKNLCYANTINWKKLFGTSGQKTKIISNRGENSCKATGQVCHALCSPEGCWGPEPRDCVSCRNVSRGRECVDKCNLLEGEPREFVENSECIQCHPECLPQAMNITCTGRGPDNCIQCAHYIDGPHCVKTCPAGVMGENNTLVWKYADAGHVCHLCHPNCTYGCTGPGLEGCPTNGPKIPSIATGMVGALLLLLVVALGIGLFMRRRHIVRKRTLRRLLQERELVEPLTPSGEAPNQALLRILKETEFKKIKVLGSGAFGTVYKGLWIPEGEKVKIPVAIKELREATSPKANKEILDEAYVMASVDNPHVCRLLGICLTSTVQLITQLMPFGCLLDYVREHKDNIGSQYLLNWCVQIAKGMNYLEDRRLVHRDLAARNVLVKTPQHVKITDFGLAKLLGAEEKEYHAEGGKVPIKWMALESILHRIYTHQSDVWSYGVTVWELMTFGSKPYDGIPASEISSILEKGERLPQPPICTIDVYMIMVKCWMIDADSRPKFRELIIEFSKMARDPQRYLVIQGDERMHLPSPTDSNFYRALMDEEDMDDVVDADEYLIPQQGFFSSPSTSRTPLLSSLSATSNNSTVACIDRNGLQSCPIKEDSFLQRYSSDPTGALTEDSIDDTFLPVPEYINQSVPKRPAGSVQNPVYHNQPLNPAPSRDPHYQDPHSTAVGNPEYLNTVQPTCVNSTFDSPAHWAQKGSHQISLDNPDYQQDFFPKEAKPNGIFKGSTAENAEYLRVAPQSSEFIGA

B16-F10 = assay: Antiproliferative activity against mouse B16F10 cells incubated for 48 hrs by MTT assay; type: functional, cell-based; details: B16-F10, 48 h
MCF7 [20] = assay: Cytotoxicity in human MCF7 cells assessed as reduction in cell viability incubated for 48 hrs by MTT assay; type: functional, cell-based; details: MCF7, 48 h
MDA-MB-231 [21] = assay: cells; details: Homo sapiens, MDA-MB-231, 24 h
Description: Cytotoxicity in human MDA-MB-231 cells assessed as reduction in cell viability incubated for 24 hrs by MTT assay

Compound: O=C(/C=C/c1ccc(/C=C/C(=O)c2cccc3c2C(=O)c2ccccc2C3=O)cc1)c1ccccc1
IC50 (KB): 0.66 µg/mL (≈ 1.41 µM)

GI50 (PC-3 [1]): 0.026 to 0.035 µM | GI50 (A549 [2]): 0.026 to 0.035 µM | GI50 (HeLa [3]): 0.026 to 0.035 µM | GI50 (K562 [4]): 0.026 to 0.035 µM | GI50 (Bel-7402): 0.026 to 0.035 µM
Compound: COc1cc2c(c(OC)c1OC)C/C(=C\c1cccc3[nH]ccc13)C2=O

IC50 (MCF7 [5]): 0.23 µM | IC50 (A549 [6]): 0.38 µM | IC50 (HeLa [7]): 0.32 µM
Compound: COc1ccc(Cc2nnc(COc3ncnc4ccccc34)o2)cc1OC

IC50 (A549 [2]): 0.51 to 1.29 µM | IC50 (HeLa [3]): 0.51 to 1.29 µM | IC50 (MCF7 [8]): 0.51 to 1.29 µM | IC50 (HCT-116): 0.51 to 1.29 µM
Compound: COc1ccc(N/C=C/C(=O)c2cccnc2Nc2cc(OC)c(OC)c(OC)c2)cc1

Compound: COc1ccc(C(=O)/C=C/c2cc3c([nH]c4ccccc43)c(-c3ccc(OC)c(OC)c3)n2)cc1
IC50 (A549 [9]): < 10 µM

Compound: COc1cc(-c2nc(/C=C/C(=O)c3cc(OC)c(OC)c(OC)c3)cc3c2[nH]c2ccccc23)ccc1F
IC50 (A549 [9]): < 10 µM

Compound: COc1ccc(Cn2cc(C(=O)c3cn(-c4ccccc4)nc3-c3ccc(Cl)cc3)nn2)cc1OC
IC50 (U-87 MG): 0.86 µM | IC50 (A549 [10]): 1.93 µM | IC50 (PC-3 [11]): 3.71 µM | IC50 (HT-29 [12]): 2.42 µM

Compound: COc1ccc(-c2nc(/C=C/C(=O)c3ccc([N+](=O)[O-])cc3)cc3c2[nH]c2ccccc23)cc1OC
IC50 (A549 [9]): < 10 µM

Compound: COc1ccc(C(=O)/C=C/c2cc3c([nH]c4ccccc43)c(-c3ccc(F)cc3)n2)cc1
IC50 (A549 [9]): < 10 µM

Compound: COc1ccc(-c2cn3c(-c4ccc(OC)cc4)cnc3c(Oc3ccc4c(C)cc(=O)oc4c3)n2)cc1
inhibition of growth at 10 µM (MDA-MB-231 [13]): 93% | inhibition of growth at 10 µM (A498): 90% | Activity (HEK293 [14]): 17%

IC50 (MDA-MB-231 [15]): 0.0014 µM | IC50 (SK-OV-3): 0.0034 µM | IC50 (DU-145): 0.02 µM
Compound: CC12CCC(OC(=O)CCC(=O)OCCOc3no[n+]([O-])c3S(=O)(=O)c3ccccc3)CC1=CCC1C2CCC2(C)c3c(cnn3-c3ccccc3)CC12 (stereo unspecified)
IC50 (HUVEC): 0.0035 µM

Compound: Nc1ccc(C(=O)/C=C/c2cc3c([nH]c4ccccc43)c(-c3ccc(F)cc3)n2)cc1
IC50 (A549 [9]): < 10 µM

IC50 (HT-29 [16]): 0.2 µM | IC50 (A549 [2]): 1.1 µM | IC50 (DU-145): 0.1 µM
Compound: O=C(c1cn(Cc2cccc(Oc3ccccc3)c2)nn1)c1cccnc1Nc1ccc(F)cc1
IC50 (HEK293 [17]): 59.6 µM

Compound: COc1cc(C(=O)N/N=C2\C(=O)Nc3ccc(C)cc32)cc(OC)c1OC
IC50 (REH): 0.5 µM | IC50 (K562 [18]): 2 µM

Compound: COc1cc(-c2nc(/C=C/C(=O)c3ccc([N+](=O)[O-])cc3)cc3c2[nH]c2ccccc23)ccc1F
IC50 (A549 [9]): < 10 µM

IC50 (HeLa [3]): 0.29 µM | IC50 [19]: 0.009 µM | IC50 (MCF7 [8]): 0.56 µM | IC50 (B16-F10): 0.09 µM
Compound: O=C1CSC(N2N=C(c3ccncc3)CC2c2ccc(Br)cc2)=N1 (stereo unspecified)

Compound: COc1ccc(C(=O)/C=C/c2cc3c([nH]c4ccccc43)c(-c3ccc(F)c(OC)c3)n2)cc1
IC50 (A549 [9]): < 10 µM

Compound: COc1cc(-c2nc(/C=C/C(=O)c3ccc(N)cc3)cc3c2[nH]c2ccccc23)cc(OC)c1OC
IC50 (A549 [9]): < 10 µM

Compound: O=Cc1c(-c2cc3cc(Br)ccc3oc2=O)[nH]c2ccccc12
IC50 (MCF7 [20]): 7.4 µM

Compound: COc1cc(-c2nc(/C=C/C(=O)c3ccc([N+](=O)[O-])cc3)cc3c2[nH]c2ccccc23)cc(OC)c1OC
IC50 (A549 [9]): < 10 µM

Compound: COc1cc(C(=O)/C=C/c2cc3c([nH]c4ccccc43)c(-c3ccc(F)cc3)n2)cc(OC)c1OC
IC50 (A549 [9]): < 10 µM

IC50 (MDA-MB-231 [21]): 3.21 µM
Compound: CCCC(CC)NC(=O)c1c(C)[nH]c(/C=C2\C(=O)Nc3nc(C)c(O)c(C)c32)c1C (stereo unspecified)

Reference: ChEMBL document CHEMBL4270497, “Recent advances (2015-2016) in anticancer hybrids” (Eur J Med Chem, 2017)
